The values below come from patent publication US6525065B1, “Pharmaceutical compositions and methods for effecting dopamine release” (priority 1997, dated 2003).

For assay [1], the system named is dopamine release. The experiment in a line: cells. The format is cell-based. To be noted: for EC50: read-out: Dopamine Release EC50; for Dopamine Release Ecmax: amount released relative to (S)-(-)-nicotine on a percentage basis.
Assay [2] concerns the target T1, muscle-type nicotinic acetylcholine receptors (Homo sapiens, UniProt P02708+P07510+Q07001).
T1 construct: endogenous in cells; host or cells: TE671/RD (own knowledge of the cited US 5,597,919)
The experiment in a line: cell-based.

For assay [3], the target named is ganglionic-type nicotinic acetylcholine receptors (Rattus norvegicus, UniProt P04757+P12392). The experiment in a line: cell-based. The following applies: read-out: Ganglion Effect Ecmax.
[4] abbreviates: read-out: Dopamine Release Ecmax.
Setting [5] is: maximal activation as percentage of that induced by (S)-(-)-nicotine.
[6] abbreviates: read-out: Dopamine Release Ecmax, amount released relative to (S)-(-)-nicotine on a percentage basis.

Structures can show the parent of a compound that is named as a salt. Where two headings read alike, the source gives them in different places.

T1 sequence (P02708 21-457): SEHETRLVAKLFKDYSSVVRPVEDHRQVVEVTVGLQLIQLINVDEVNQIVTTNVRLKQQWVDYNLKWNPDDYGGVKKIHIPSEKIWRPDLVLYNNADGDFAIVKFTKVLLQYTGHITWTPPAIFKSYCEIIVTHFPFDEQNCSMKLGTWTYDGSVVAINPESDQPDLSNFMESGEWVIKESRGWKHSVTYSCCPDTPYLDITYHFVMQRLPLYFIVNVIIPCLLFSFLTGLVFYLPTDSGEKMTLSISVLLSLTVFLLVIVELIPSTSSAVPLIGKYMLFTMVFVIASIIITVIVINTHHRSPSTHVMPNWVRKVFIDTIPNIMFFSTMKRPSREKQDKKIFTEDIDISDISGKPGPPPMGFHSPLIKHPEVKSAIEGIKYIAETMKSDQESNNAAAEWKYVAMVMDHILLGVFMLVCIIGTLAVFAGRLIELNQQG
T1 sequence (P11230 24-501 partner): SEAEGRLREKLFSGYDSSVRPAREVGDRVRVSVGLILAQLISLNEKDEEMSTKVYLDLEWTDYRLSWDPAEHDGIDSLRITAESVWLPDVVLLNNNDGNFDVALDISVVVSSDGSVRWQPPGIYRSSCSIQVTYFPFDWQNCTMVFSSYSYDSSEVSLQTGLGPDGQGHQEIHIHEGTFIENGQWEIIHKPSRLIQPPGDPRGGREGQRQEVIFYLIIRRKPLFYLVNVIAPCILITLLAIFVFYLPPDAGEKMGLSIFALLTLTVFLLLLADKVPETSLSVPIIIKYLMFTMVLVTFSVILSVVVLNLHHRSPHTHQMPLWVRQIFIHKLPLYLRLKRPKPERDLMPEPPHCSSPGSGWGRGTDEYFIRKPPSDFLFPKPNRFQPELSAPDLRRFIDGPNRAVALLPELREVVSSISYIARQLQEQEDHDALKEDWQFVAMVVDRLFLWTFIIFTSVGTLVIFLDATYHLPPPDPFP
T1 sequence (Q07001 22-517): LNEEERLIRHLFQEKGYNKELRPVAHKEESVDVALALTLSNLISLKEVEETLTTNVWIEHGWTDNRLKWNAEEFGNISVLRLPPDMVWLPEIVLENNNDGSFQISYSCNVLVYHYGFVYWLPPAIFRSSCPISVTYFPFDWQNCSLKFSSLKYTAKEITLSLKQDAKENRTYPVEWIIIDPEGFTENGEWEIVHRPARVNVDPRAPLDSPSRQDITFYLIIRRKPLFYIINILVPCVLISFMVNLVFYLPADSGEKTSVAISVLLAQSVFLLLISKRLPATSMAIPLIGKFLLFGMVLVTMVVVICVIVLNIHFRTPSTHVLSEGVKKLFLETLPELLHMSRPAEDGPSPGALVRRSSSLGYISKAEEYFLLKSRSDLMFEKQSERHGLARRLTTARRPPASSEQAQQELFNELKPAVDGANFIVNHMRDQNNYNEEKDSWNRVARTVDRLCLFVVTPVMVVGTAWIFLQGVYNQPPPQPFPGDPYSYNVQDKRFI
T1 sequence (P07510 23-517): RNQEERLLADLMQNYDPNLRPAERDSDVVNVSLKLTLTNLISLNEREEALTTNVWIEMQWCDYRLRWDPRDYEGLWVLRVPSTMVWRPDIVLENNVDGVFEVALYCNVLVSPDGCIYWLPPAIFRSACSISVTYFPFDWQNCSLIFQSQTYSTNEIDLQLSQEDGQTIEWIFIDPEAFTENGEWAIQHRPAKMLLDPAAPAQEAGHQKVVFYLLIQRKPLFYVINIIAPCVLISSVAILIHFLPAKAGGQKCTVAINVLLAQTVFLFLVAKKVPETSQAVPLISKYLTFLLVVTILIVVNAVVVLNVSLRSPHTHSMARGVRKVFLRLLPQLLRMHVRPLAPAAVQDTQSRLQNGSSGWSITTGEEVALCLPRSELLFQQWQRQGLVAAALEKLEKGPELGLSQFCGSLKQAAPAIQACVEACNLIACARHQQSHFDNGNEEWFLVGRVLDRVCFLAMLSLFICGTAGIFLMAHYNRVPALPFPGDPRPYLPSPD
ganglionic-type nicotinic acetylcholine receptors, sequence (P04757 26-499): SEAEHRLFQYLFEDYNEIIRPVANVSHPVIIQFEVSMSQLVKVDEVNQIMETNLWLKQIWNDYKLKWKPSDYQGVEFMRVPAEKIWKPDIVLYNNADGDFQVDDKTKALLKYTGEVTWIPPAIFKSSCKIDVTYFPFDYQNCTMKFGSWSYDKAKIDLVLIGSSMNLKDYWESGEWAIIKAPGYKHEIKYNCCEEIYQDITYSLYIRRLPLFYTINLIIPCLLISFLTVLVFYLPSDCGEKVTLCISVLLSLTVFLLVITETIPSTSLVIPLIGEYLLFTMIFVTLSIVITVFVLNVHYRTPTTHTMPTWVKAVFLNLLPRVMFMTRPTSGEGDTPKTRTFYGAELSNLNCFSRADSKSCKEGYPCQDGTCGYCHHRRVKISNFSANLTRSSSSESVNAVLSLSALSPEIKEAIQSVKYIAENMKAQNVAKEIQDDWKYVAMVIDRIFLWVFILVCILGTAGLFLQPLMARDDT
ganglionic-type nicotinic acetylcholine receptors, sequence (P12392 21-495): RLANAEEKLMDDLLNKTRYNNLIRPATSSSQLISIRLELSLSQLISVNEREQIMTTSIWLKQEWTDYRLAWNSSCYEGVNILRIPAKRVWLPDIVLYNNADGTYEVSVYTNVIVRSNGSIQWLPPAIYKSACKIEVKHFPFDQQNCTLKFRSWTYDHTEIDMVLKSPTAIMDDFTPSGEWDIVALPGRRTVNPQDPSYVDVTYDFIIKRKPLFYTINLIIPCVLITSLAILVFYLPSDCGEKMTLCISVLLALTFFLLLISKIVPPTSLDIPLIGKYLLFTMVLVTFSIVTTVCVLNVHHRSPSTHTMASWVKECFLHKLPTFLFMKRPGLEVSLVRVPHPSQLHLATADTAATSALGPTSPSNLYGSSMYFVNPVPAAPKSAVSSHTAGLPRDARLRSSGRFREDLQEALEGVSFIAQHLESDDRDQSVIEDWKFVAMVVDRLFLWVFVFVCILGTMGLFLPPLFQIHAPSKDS

As usually defined, the EC50 is the concentration needed to bring the measured effect to its halfway point. As to `c1cncc(C2CC3CCN2CC3)c1` (racemic) [Sample No. 1, (+/−)-1-aza-2-(3-pyridyl)bicyclo[2.2.2]octane], in assay [1], the EC50 was 2 nM. Moreover, the Emax in assay [1] (setting [4]) amounted to 40%; in assay [3], 85%. Moreover, the “Muscle Effect Ecmax” value in assay [2] is 110%.

Consider `Brc1cncc(C2CC3CCN2CC3)c1` (racemic) [Sample No. 2], for which, in assay [1], the “Dopamine Release Ecmax” value is 43% and the EC50 was 2 nM. The “Muscle Effect Ecmax” value in assay [2] (setting [5]) was found to be 133%. Further, in assay [3], the Emax stood at 106%.

For the molecule `c1cncc([C@H]2C[C@@H]3CCN2C3)c1` (relative stereo) [Sample No. 3, exo 1-aza-2-(3-pyridyl)bicyclo[2.2.1]heptane], the EC50 was 6 nM in assay [1] and 100 nM in assay [2]. The Emax in assay [1] (setting [6]) was 130%; in assay [3] it was 100%. Further, in assay [2] (setting [5]), the “Muscle Effect Ecmax” value came to 130%.

With `c1cncc([C@@H]2C[C@@H]3CCN2C3)c1` (relative stereo) [Sample No. 4, endo-1-aza-2-(3-pyridyl)bicyclo[2.2.1]heptane], in assay [1], the “Dopamine Release Ecmax” value turned out to be 114% and the EC50 amounted to 33 nM. For the same molecule, the “Muscle Effect Ecmax” value in assay [2] (setting [5]) is listed as 130%. Also, the EC50 in assay [2] (read-out: Muscle Effect EC50) is 100 nM.

For `c1cncc(C2C3CCN2CC3)c1` (stereo not drawn) [Sample No. 5, 1-aza-7-(3-pyridyl)bicyclo[2.2.1]heptane], the concentration giving a half-maximal response (EC50) in assay [1] came to 4 nM; in assay [2] it was 300 nM. Further, the Emax in assay [1] (setting [6]) is 93%; in assay [3] it was 120%. For the same molecule, the “Muscle Effect Ecmax” value in assay [2] (setting [5]) worked out at 130%.

As for `Nc1cncc(C2CC3CCN2CC3)c1` (stereo not drawn) [Sample No. 6, 5-(1-azabicyclo[2.2.2]oct-2-yl-3-(amino)pyridinetrihydrochloride], in assay [1], the “Dopamine Release Ecmax” value was determined as 43% and the EC50 amounted to 7 nM. Besides, the “amounts causing muscle effects and effects upon ganglia relative to those required to cause dopamine release” value in assay [1] (selectivity of dopamine release over muscle and ganglion effects) is given as “many times”. In addition, in assay [2] (setting [5]), the “Muscle Effect Ecmax” value is 100%. Besides, the EC50 in assay [2] (read-out: Muscle Effect EC50) came to 3000 nM. The Emax in assay [3] (setting [5]) is 75%.

Consider `CCOc1cncc(C2CC3CCN2CC3)c1.Cl.Cl` (stereo not drawn) [Sample No. 7, 5-(1-azabicyclo[2.2.2]oct-2-yl)-3-(ethoxy)pyridine dihydrochloride], for which the EC50 is 5 nM in assay [1] and 700 nM in assay [2]. Besides, the values for the Emax in assay [1] (setting [6]) and in assay [3] were 40% and 86%, respectively. Moreover, the “Muscle Effect Ecmax” value in assay [2] (setting [5]) is listed as 137%.

`CC(C)Oc1cncc(C2CC3CCN2CC3)c1` (stereo not drawn) [Sample No. 8, 5-(1-azabicyclo[2.2.2]oct-2-yl-3-(isopropyloxy)pyridinedihydrochloride]: the concentration for a half-maximal effect (EC50) in assay [2] (read-out: Muscle Effect EC50) was 3000 nM. Further, the Emax in assay [3] stood at 94%.

On to `CN1CCC[C@H]1c1cccnc1` [Sample No. C-1, (S)-(−)-nicotine, reference compound], for which the EC50 in assay [1] was 115 nM. In addition, in assay [1] (setting [4]), the Emax was found to be 100%. In addition, in assay [2], the EC50 turned out to be 60000 nM and the “Muscle Effect Ecmax” value amounted to 100%.
